From ChEMBL document CHEMBL1208750, “Synthesis, larvicidal activity, and SAR studies of new benzoylphenylureas containing oxime ether and oxime ester group” (2010)
In brackets after ≈: the same amount, converted by molar mass.

Columns and labels:
Format in all cases: functional
Aedes aegypti [1] = assay: Larvicidal activity against mosquito larvae at 0.25 mg/L
Mythimna separata [2] = assay: Larvicidal activity against Oriental armyworm at 10 mg/L
Aedes aegypti [3] = assay: Larvicidal activity against mosquito larvae at 0.5 mg/L
Mythimna separata [4] = assay: Larvicidal activity against Oriental armyworm at 100 mg/L
Mythimna separata [5] = assay: Larvicidal activity against Oriental armyworm at 25 mg/L
Mythimna separata [6] = assay: Larvicidal activity against Oriental armyworm at 200 mg/L
Mythimna separata [7] = assay: Larvicidal activity against Oriental armyworm at 5 mg/L
Mythimna separata [8] = assay: Larvicidal activity against Oriental armyworm at 50 mg/L
Aedes aegypti [9] = assay: Larvicidal activity against mosquito larvae at 0.1 mg/L
Aedes aegypti [10] = assay: Larvicidal activity against mosquito larvae at 0.025 mg/L
Aedes aegypti [11] = assay: Larvicidal activity against mosquito larvae at 0.05 mg/L
Mythimna separata [12] = assay: Larvicidal activity against Oriental armyworm at 2.5 mg/L
Mythimna separata [13] = assay: Larvicidal activity against Oriental armyworm at 0.5 mg/L
Mythimna separata [14] = assay: Larvicidal activity against Oriental armyworm at 1 mg/L
Aedes aegypti [15] = assay: Larvicidal activity against mosquito larvae at 2 mg/L
Aedes aegypti [16] = assay: Larvicidal activity against mosquito larvae at 1 mg/L
Aedes aegypti [17] = assay: Larvicidal activity against mosquito larvae at 0.01 mg/L
Aedes aegypti [18] = assay: Larvicidal activity against mosquito larvae at 0.005 mg/L
Aedes aegypti [19] = assay: Larvicidal activity against mosquito larvae at 0.0001 mg/L
Ostrinia nubilalis = assay: Larvicidal activity against corn Borer
Mythimna separata [20] = assay: Larvicidal activity against Oriental armyworm at 0.125 mg/L
Aedes aegypti [21] = assay: Larvicidal activity against mosquito larvae at 0.0025 mg/L
Aedes aegypti [22] = assay: Larvicidal activity against mosquito larvae at 0.001 mg/L
Spodoptera exigua = assay: Larvicidal activity against beet armyworm
Mythimna separata [23] = assay: Larvicidal activity against Oriental armyworm at 0.25 mg/L
Plutella xylostella = assay: Larvicidal activity against diamondback moth
Aedes aegypti [24] = assay: Larvicidal activity against mosquito larvae at 0.00025 mg/L

SMILES | Activity (Aedes aegypti [1]) [%] | Activity (Mythimna separata [2]) [%] | Activity (Aedes aegypti [3]) [%] | Activity (Mythimna separata [5]) [%] | Activity (Mythimna separata [7]) [%] | Activity (Mythimna separata [8]) [%] | Activity (Aedes aegypti [9]) [%] | Activity (Mythimna separata [12]) [%] | Activity (Mythimna separata [13]) [%] | Activity (Mythimna separata [14]) [%] | Activity (Aedes aegypti [17]) [%] | other results
Cc1cccc(O/N=C/c2ccc(NC(=O)NC(=O)c3c(F)cccc3F)cc2)c1 | 60 | 10 | 90 | 30 | 0 | 50 |  |  |  |  |  | Activity (Mythimna separata [4]): 90%; Activity (Mythimna separata [6]): 100%
C/C(=N\OC(C)C)c1ccc(NC(=O)NC(=O)c2c(F)cccc2F)cc1 | 100 | 100 | 100 |  | 100 |  | 90 | 65 | 0 | 10 |  | Activity (Aedes aegypti [10]): 30%; Activity (Aedes aegypti [11]): 90%
C/C(=N\OCc1ccccc1)c1ccc(NC(=O)NC(=O)c2c(F)cccc2F)cc1 |  | 10 |  | 80 |  | 90 |  |  |  |  |  | Activity (Aedes aegypti [15]): 0%; Activity (Aedes aegypti [16]): 0%
CC(C)O/N=C(\C#N)c1ccc(NC(=O)NC(=O)c2c(F)cccc2F)cc1 | 100 | 80 |  |  | 40 | 100 | 100 | 0 |  |  | 0 | Activity (Aedes aegypti [10]): 10%; Activity (Aedes aegypti [11]): 50%
N#C/C(=N\OCc1ccccc1)c1ccc(NC(=O)NC(=O)c2c(F)cccc2F)cc1 | 100 |  | 100 |  |  |  | 90 |  |  |  |  | Activity (Mythimna separata [6]): 0%; Activity (Aedes aegypti [11]): 0%
CC(C)O/N=C/c1ccc(NC(=O)NC(=O)c2c(F)cccc2F)c(Cl)c1 |  |  | 100 |  | 100 |  |  | 90 | 0 | 10 | 100 | Activity (Aedes aegypti [18]): 30%
CC(C)O/N=C/c1ccc(NC(=O)NC(=O)c2c(F)cccc2F)c(F)c1 |  |  |  |  |  |  |  | 100 | 90 | 100 | 100 | Activity (Aedes aegypti [19]): 10%; LC50 (Ostrinia nubilalis): 7.59 µg/mL (≈ 20 µM); Activity (Mythimna separata [20]): 0%; Activity (Aedes aegypti [21]): 50%; Activity (Aedes aegypti [18]): 100%; Activity (Aedes aegypti [22]): 20%; LC50 (Spodoptera exigua): 4.32 µg/mL (≈ 11.4 µM); Activity (Mythimna separata [23]): 10%; LC50 (Plutella xylostella): 2.75 µg/mL (≈ 7.25 µM)
CC(C)O/N=C/c1ccc(NC(=O)NC(=O)c2c(F)cccc2F)cc1Cl |  |  |  |  | 100 |  |  | 90 | 0 | 10 | 100 | Activity (Aedes aegypti [21]): 30%; Activity (Aedes aegypti [18]): 100%; Activity (Aedes aegypti [22]): 10%
CC(=O)O/N=C/c1ccc(NC(=O)NC(=O)c2c(F)cccc2F)cc1 | 0 | 0 | 20 | 10 |  | 20 |  |  |  |  |  | Activity (Aedes aegypti [15]): 100%; Activity (Aedes aegypti [16]): 100%; Activity (Mythimna separata [4]): 50%; Activity (Mythimna separata [6]): 100%
O=C(NC(=O)c1c(F)cccc1F)Nc1ccc(/C=N/OC(=O)c2ccccc2)cc1 | 80 | 80 | 100 | 90 | 40 |  | 30 | 0 |  |  |  | Activity (Aedes aegypti [16]): 100%
Cc1cc(C)cc(C(=O)O/N=C/c2ccc(NC(=O)NC(=O)c3c(F)cccc3F)cc2)c1 | 100 | 100 | 100 | 100 | 90 |  | 90 | 0 |  |  |  | Activity (Aedes aegypti [10]): 10%; Activity (Aedes aegypti [11]): 90%
CC(C)C(=O)O/N=C/c1ccc(NC(=O)NC(=O)c2c(F)cccc2F)cc1 | 100 | 100 | 100 |  | 100 |  | 70 | 20 | 0 | 10 |  | Activity (Aedes aegypti [10]): 0%; Activity (Aedes aegypti [11]): 10%
O=C(NC(=O)c1c(F)cccc1F)Nc1ccc(/C=N/Oc2ccc(Cl)cc2)cc1 |  | 100 |  |  | 100 |  |  | 80 |  | 0 |  | Activity (Aedes aegypti [21]): 100%; Activity (Aedes aegypti [24]): 20%; Activity (Aedes aegypti [22]): 100%
O=C(NC(=O)c1c(F)cccc1F)Nc1ccc(/C=N/Oc2ccc(Br)cc2)cc1 |  | 100 |  | 100 | 90 | 90 |  | 90 |  | 0 | 100 | Activity (Aedes aegypti [19]): 90%; Activity (Aedes aegypti [21]): 40%; Activity (Aedes aegypti [18]): 100%; Activity (Aedes aegypti [22]): 0%
O=C(NC(=O)c1c(F)cccc1F)Nc1ccc(/C=N/Oc2ccccc2)cc1 |  | 20 |  | 40 | 0 |  |  |  |  |  | 100 | Activity (Mythimna separata [4]): 100%; Activity (Aedes aegypti [21]): 10%; Activity (Aedes aegypti [10]): 100%; Activity (Aedes aegypti [18]): 20%; Activity (Mythimna separata [6]): 100%
CC(C)(C)O/N=C/c1ccc(NC(=O)NC(=O)c2c(F)cccc2F)c(F)c1 |  |  |  |  |  |  |  | 100 | 90 | 100 |  | LC50 (Ostrinia nubilalis): 10 µg/mL (≈ 25.5 µM); LC50 (Spodoptera exigua): 3.37 µg/mL (≈ 8.57 µM); Activity (Mythimna separata [23]): 10%; LC50 (Plutella xylostella): 0.57 µg/mL (≈ 1.45 µM)
CC(C)(C)O/N=C/c1cccc(NC(=O)NC(=O)c2c(F)cccc2F)c1 |  |  |  | 90 |  | 100 |  |  |  |  |  | Activity (Mythimna separata [4]): 100%
CC(C)(C)O/N=C/c1ccccc1NC(=O)NC(=O)c1c(F)cccc1F |  |  |  |  |  |  |  |  |  |  |  | Activity (Mythimna separata [6]): 0%
CC(C)(C)O/N=C/Cc1ccc(NC(=O)NC(=O)c2c(F)cccc2F)cc1 |  | 80 |  | 100 |  | 100 |  |  |  |  |  | 
CC(C)O/N=C/c1ccc(NC(=O)NC(=O)c2c(F)cccc2F)cc1 |  |  |  |  |  |  |  | 100 | 50 | 100 |  | Activity (Aedes aegypti [21]): 15%; Activity (Aedes aegypti [18]): 75%; Activity (Aedes aegypti [22]): 0%; Activity (Mythimna separata [23]): 0%
O=C(NC(=O)c1c(F)cccc1F)Nc1ccc(CO/N=C(/c2ccc(Cl)cc2)C2CC2)cc1 [FLUCYCLOXURON] |  | 95 |  |  | 90 |  | 100 | 50 | 0 | 10 | 0 | LC50 (Ostrinia nubilalis): 9.25 µg/mL (≈ 19.1 µM); Activity (Aedes aegypti [10]): 15%; Activity (Aedes aegypti [11]): 100%; LC50 (Spodoptera exigua): 102 µg/mL (≈ 210 µM); LC50 (Plutella xylostella): 72.9 µg/mL (≈ 151 µM)
